Reference: PubChem BioAssay (NCI)
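Cells were grown in 96-well plates and exposed to each compound for 48 hours at five concentrations; endpoints were interpolated linearly between bracketing concentrations, or set to the highest concentration if not reached. Abbreviation: GI50, concentration required for 50% inhibition of growth. TGI marks complete inhibition of growth.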

Columns and labels:
Assay in all cases: inhibition of tumour cell growth, NCI panel, 48 h
[1] = system: SN12C renal
[2] = system: HCC-2998 colon
[3] = system: T-47D breast
[4] = system: ACHN renal
[5] = system: SF-268 CNS
[6] = system: SW-620 colon
[7] = system: NCI-H226 lung
[8] = system: SK-MEL-2 melanoma
[9] = system: UACC-62 melanoma
[10] = system: CAKI-1 renal
[11] = system: HT29 colon
[12] = system: NCI/ADR-RES ovarian
[13] = system: HCT-15 colon
[14] = system: SNB-75 CNS
[15] = system: HOP-92 NSCLC
[16] = system: A498 renal
[17] = system: HS 578T breast
[18] = system: OVCAR-4 ovarian
[19] = system: NCI-H23 lung
[20] = system: UO-31 renal
[21] = system: SNB-19 CNS
[22] = system: RXF 393 renal
[23] = system: IGROV1 ovarian
[24] = system: MCF7 breast
[25] = system: SR leukemia
[26] = system: KM12 colon
[27] = system: MDA-MB-231 breast
[28] = system: K-562 leukemia
[29] = system: SF-539 CNS
[30] = system: NCI-H522 lung
[31] = system: LOX IMVI melanoma
[32] = system: PC-3 prostate
[33] = system: SF-295 CNS
[34] = system: U251 CNS
[35] = system: MDA-MB-435
[36] = system: EKVX NSCLC
[37] = system: TK-10 renal
[38] = system: HL-60(TB) leukemia
[39] = system: UACC-257 melanoma
[40] = system: DU-145 prostate
[41] = system: HOP-62 NSCLC
[42] = system: COLO 205 colon
[43] = system: MALME-3M melanoma
[44] = system: OVCAR-3 ovarian
[45] = system: A549 NSCLC
[46] = system: OVCAR-5 ovarian
[47] = system: OVCAR-8 ovarian
[48] = system: M14 melanoma
[49] = system: NCI-H460 lung
[50] = system: CCRF-CEM leukemia
[51] = system: SK-MEL-28 melanoma
[52] = system: SK-MEL-5 melanoma
[53] = system: HCT-116 colon

## S=C(Nc1ccc(Cl)cc1)Nc1ccc(Cl)cc1 (tested in a mixture with another compound)
[1]
  GI50: 2.49 µM
  TGI: 7.32 µM
[2]
  GI50: 2.07 µM
  TGI: 5.5 µM
[3]
  GI50: 3.75 µM
  TGI: 23.9 µM
[4]
  GI50: 2.37 µM
  TGI: 9.12 µM
[5]
  GI50: 3.2 µM
  TGI: 15.8 µM
[6]
  GI50: 2.99 µM
  TGI: 13.8 µM
[7]
  GI50: 2.33 µM
  TGI: 7.76 µM
[8]
  GI50: 2.34 µM
  TGI: 5.04 µM
[9]
  GI50: 1.75 µM
  TGI: 4.28 µM
[10]
  GI50: 2.15 µM
  TGI: 7.08 µM
[11]
  GI50: 1.96 µM
  TGI: 4.88 µM
[12]
  GI50: 2.54 µM
  TGI: 13.9 µM
[13]
  GI50: 2.59 µM
  TGI: 11.4 µM
[14]
  GI50: 1.65 µM
  TGI: 4.87 µM
[15]
  GI50: 1.55 µM
  TGI: 4.56 µM
[16]
  GI50: 1.62 µM
  TGI: 6.56 µM
[17]
  GI50: 2.37 µM
  TGI: > 100 µM
[18]
  GI50: 2.92 µM
  TGI: > 100 µM
[19]
  GI50: 1.87 µM
  TGI: 6.05 µM
[20]
  GI50: 2.26 µM
  TGI: 34.9 µM
[21]
  GI50: 3.25 µM
  TGI: > 100 µM
[22]
  GI50: 2.13 µM
  TGI: 5.29 µM
[23]
  GI50: 3.26 µM
  TGI: > 100 µM
[24]
  GI50: 2.89 µM
  TGI: 8.09 µM
[25]
  GI50: 2.38 µM
  TGI: 5.74 µM
[26]
  GI50: 2.76 µM
  TGI: 9.1 µM
[27]
  GI50: 1.86 µM
  TGI: 3.68 µM
[28]
  GI50: 2.28 µM
  TGI: > 100 µM
[29]
  GI50: 2 µM
  TGI: 4.84 µM
[30]
  GI50: 1.39 µM
  TGI: 4.37 µM
[31]
  GI50: 1.71 µM
  TGI: 3.57 µM
[32]
  GI50: 1.71 µM
  TGI: 6.59 µM
[33]
  GI50: 1.75 µM
  TGI: 4.38 µM
[34]
  GI50: 1.64 µM
  TGI: 3.52 µM
[35]
  GI50: 2.45 µM
  TGI: 7.86 µM
[36]
  GI50: 2.25 µM
  TGI: > 100 µM
[37]
  GI50: 2.24 µM
  TGI: 5.9 µM
[38]
  GI50: 1.98 µM
  TGI: 4.98 µM
[39]
  GI50: 2.65 µM
  TGI: 6.23 µM
[40]
  GI50: 4.87 µM
  TGI: > 100 µM
[41]
  GI50: 2.75 µM
  TGI: 7.2 µM
[42]
  GI50: 1.9 µM
  TGI: 3.42 µM
[43]
  GI50: 2.55 µM
  TGI: > 100 µM
[44]
  GI50: 1.69 µM
  TGI: 4.48 µM
[45]
  GI50: 2.38 µM
  TGI: > 100 µM
[46]
  GI50: 2.38 µM
  TGI: 9.71 µM
[47]
  GI50: 3.26 µM
  TGI: > 100 µM
[48]
  GI50: 2.03 µM
  TGI: 5.39 µM
[49]
  GI50: 1.61 µM
  TGI: 4.46 µM
[50]
  GI50: 1.61 µM
  TGI: 9.83 µM
[51]
  GI50: 3.46 µM
  TGI: 25.5 µM
[52]
  GI50: 1.55 µM
  TGI: 2.94 µM
[53]
  GI50: 1.46 µM
  TGI: 3.07 µM
